Measured values from patent US11932623B2, “Uracil compounds and use thereof” (Sumitomo Chemical Company, Limited, priority 2018, dated 2024).

What was measured:
Type in all cases: in vivo
[1] = system: corn; experiment: Test Example 1: post-emergence foliar spray pot test, safety against useful plants (phytotoxicity); conditions: for Corn (phytotoxicity score): foliar spray 204 L/ha on plants grown 15 days, assessed after 11 days in greenhouse
Source text: Further, Test Examples are used to show an efficacy of the compound A on controlling weeds and safety against useful plants (phytotoxicity)
(§1) In the Test Examples as described below, for the assessment of weeds-controlling efficacy, the efficacy is defined as “0” if the condition of budding or growth of test pants in the treated area indicates little or no difference compared to that of the untreated area at the time of the investigation.
(§2) The “untreated group” represents a group where a similar treatment procedure to that of the treated group except not using the compound A is done.
(§3) A plastic pot was filled with soil. Ivyleaf morning glory (Ipomoea hederacea), Redroot pigweed (Amaranthus retroflexus) and corn were seeded to the plastic pot, and the plants are grown in a greenhouse for 15 days. A prescribed amount of the formulation prepared by the method of the formulation example 1 was diluted with water containing 1% of Agridex (registered trademark) to obtain a diluted solution. The diluted solution was uniformly sprayed at a rate of 204 L/ha from the upper side of the plants such that the applied dose of the compound A was made to 20 gai/ha or 10 gai/ha. Thereafter, the plants were grown in a greenhouse for 11 days, and the control efficacies were assessed by the above-mentioned method. The results are shown in [Table 1].
(§4) The comparative test was conducted by using the compound B in place of the compound A according to a similar method to that described in the Test example 1.

[2] = system: Ivyleaf morning glory (Ipomoea hederacea); experiment: Test Example 1: post-emergence foliar spray pot test, weed control efficacy; conditions: for efficacy on controlling weeds against Ivyleaf morning glory (Ipomoea hederacea), in words: 20 or 10 gai/ha; for control efficacy, Ipomoea hederacea: foliar spray 204 L/ha on plants grown 15 days, assessed after 11 days in greenhouse, scale 0 to 100 (all dead)
Source text: as §1, §2, §3, §4

[3] = system: Redroot pigweed (Amaranthus retroflexus); experiment: as above; conditions: for efficacy on controlling weeds against Redroot pigweed (Amaranthus retroflexus), in words: 20 or 10 gai/ha; for control efficacy, Amaranthus retroflexus: foliar spray 204 L/ha on plants grown 15 days, assessed after 11 days in greenhouse
Source text: as §1, §2, §3, §4

[4] = applied dose 10 gai/ha, scale 0 to 100 (all dead)
[5] = applied dose 20 gai/ha, scale 0 (no difference to untreated) to 100 (all dead)

Compound | phytotoxicity against corn, in words ([1]; 20 or 10 gai/ha) | Corn (phytotoxicity score) [1, 4] | Corn (phytotoxicity score) [1, 5] | efficacy on controlling weeds against Ivyleaf morning glory (Ipomoea hederacea), in words [2] | control efficacy, Ipomoea hederacea ([2]; applied dose 10 gai/ha) | control efficacy, Ipomoea hederacea ([2]; applied dose 20 gai/ha) | efficacy on controlling weeds against Redroot pigweed (Amaranthus retroflexus), in words [3] | control efficacy, Amaranthus retroflexus [3, 4] | control efficacy, Amaranthus retroflexus [3, 5] | phytotoxicity against corn, in words ([1]; in vivo)
CCOC(=O)COc1ncccc1Oc1cc(-n2c(=O)cc(C(F)(F)F)n(C)c2=O)c(F)cc1Cl [Compound B] | high phytotoxicity | 100 | 100 | high efficacies | 100 | 100 | high efficacies | 100 | 100 | 
CCOC(=O)COc1ncccc1Oc1cc(-n2c(=O)cc(C(F)(F)F)n(C)c2=O)c(Cl)cc1Cl [Compound A] |  |  |  | high efficacies | 100 | 100 | high efficacies | 100 | 100 | low phytotoxicity
